The values below come from US20120095036A1, “NOVEL SUBSTITUTED INDAZOLE AND AZA-INDAZOLE DERIVATIVES AS GAMMA SECRETASE MODULATORS” (priority 2009, published 2012).

What is called IC50 is the midpoint of a concentration-inhibition curve. A high value points to lower potency. As usually defined, the melting point is the temperature, or range, at which the solid turns liquid.

For data set [1], the system named is Aβtotal. Kind of data set: Method 1: Aβtotal sandwich ELISA on media of SKNBE2 cells carrying APP 695 wild type. To be noted: Homo sapiens, SKNBE2 cells APP 695 wild type, 18 hours. The format is cell-based. Summed up:
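SKNBE2 cells expressing wild-type APP695 treated with compound for 18 h in Ultraculture; secreted Aβtotal measured by 6E10-capture/biotinylated 4G8 sandwich ELISA with fluorogenic peroxidase read-out. IC50 from 4-parameter fit, top/bottom fixed at 100/0, Hill slope 1; toxicity checked by WST-1.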
(An ELISA detects its analyte on a solid surface through an enzyme-linked reagent.)

Data set [2] concerns Notch-processing activity of the γ-secretase-complex. Kind of data set: Notch cell-free assay (NICD production from recombinant Notch substrate N99). It is filed as biochemical, mouse. To be noted: 1 nM of a test compound, 37° C. for 6 to 22 h, western blotting. On the procedure: The Notch transmembrane domain is cleaved by gamma secretase to release Notch Intracellular C-terminal Domain (NICD).
To monitor the effect of compounds on NICD production, a recombinant Notch substrate (N99) was prepared. The Notch substrate, comprised of mouse Notch fragment (V1711-E1809), an N-terminal methionine and a C-terminal FLAG sequence ([…]), was expressed in E. coli and purified on a column containing an anti-FLAG M2 affinity matrix.
A typical Notch cell-free assay consisted of 0.3-0.5 nM Notch substrate, an enriched preparation of gamma secretase and 1 nM of a test compound (compound 45 of the present invention). Controls included a gamma secretase inhibitor (GSI), such as (2S)-N-[2-(3,5-difluorophenyl)acetyl]-L-alanyl-2-phenyl-glycine 1,1-dimethylethyl ester (DAPT) or (2S)-2-hydroxy-3-methyl-N-[(1S)-1-methyl-2-oxo-2-[[(1S)-2,3,4,5-tetrahydro-3-methyl-2-oxo-1H-3-benzazepin-1-yl]amino]ethyl]-butanamide (Semagacestat), and DMSO, the final concentration of DMSO being 1%. Recombinant Notch substrate was pre-treated with 17 μM DTT (1,4-dithiothreitol) and 0.02% SDS (Sodium Dodecyl Sulfate) and heated at 65° C. for 10 min. The mixture of substrate, gamma secretase and compound/DMSO was incubated at 37° C. for 6 to 22 hours (h). Six-hour incubation was sufficient to produce the maximal amount of NICD and the cleaved product remained stable for an additional 16 h. Reaction products were processed for SDS PAGE (Sodium Dodecyl Sulfate—Poly Acrylamide Gel Electrophoresis) and western blotting. Blots were probed with an anti-Flag M2 antibody, followed by LI-COR infrared secondary antibody, and analyzed with the Odyssey Infrared Imaging System (LI-COR® Biosciences).

Data set [3] deals with Aβtotal. Briefly: Method 2: Aβtotal Alphalisa on supernatant of SKNBE2 cells carrying APP 695 wild type. The format is cell-based. To be noted: Homo sapiens, SKNBE2 cells APP 695 wild type, overnight. In short, it runs like this:
(§1)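 SKNBE2 cells expressing wild-type APP695 (10^4/well) were incubated overnight at 37 °C with compound at several concentrations. Secreted Aβ42 (C-terminal/N-terminal antibody pair) and Aβtotal (N-terminal/4G8 pair) were measured by AlphaLISA in the supernatant. IC50 values came from 4-parameter fits of percent of untreated control.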
Background: Alpha assays give light when donor and acceptor beads are brought close together.

Data set [4] relates to Aβ42. Briefly: Method 1: Aβ42 sandwich ELISA on media of SKNBE2 cells carrying APP 695 wild type (γ-secretase-modulating activity). It is filed as cell-based. As to conditions: Homo sapiens, SKNBE2 cells APP 695 wild type, 18 hours. Summed up:
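SKNBE2 cells expressing wild-type APP695 exposed to compounds for 18 h in Ultraculture with 1% glutamine. Secreted Aβ42 in media quantified by sandwich ELISA (C-terminal capture, biotinylated 3D6 detection, TMB, 450 nm). IC50 from 4-parameter fit, top/bottom fixed 100/0, Hill slope fixed 1; toxicity checked by WST-1.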

For data set [5], the system named is Aβ42. Kind of data set: Method 2: Aβ42 Alphalisa on supernatant of SKNBE2 cells carrying APP 695 wild type. To be noted: Homo sapiens, SKNBE2 cells APP 695 wild type, overnight. The format is cell-based. Summed up: as §1
The subject of data set [6] is Aβtotal. Kind of data set: In vivo efficacy: Aβtotal in brain (ELISA). More on the design: species or system mouse. To be noted: brain soluble fraction; typical protocol: single oral dose, overnight fasted animals, after four hours. The source says:
(§2) To determine whether acute administration of an Aβ42 lowering agent would reduce Aβ42 levels in vivo, non-transgenic rodents, e.g. mice or rats were used. Alternatively, two to three month old Tg2576 mice expressing APP695 containing the “Swedish” variant can be used or a transgenic mouse model developed by Dr. Fred Van Leuven (K.U.Leuven, Belgium) and co-workers, with neuron-specific expression of a clinical mutant of the human amyloid precursor protein [V717I] (Moechars et al., 1999 J. Biol. Chem. 274, 6483). Young transgenic mice have high levels of Aβ in the brain but no detectable Aβ deposition. At approximately 6-8 months of age, the transgenic mice start to display spontaneous, progressive accumulation of β-amyloid (A13) in the brain, eventually resulting in amyloid plaques within the subiculum, hippocampus and cortex. Animals treated with the Aβ42 lowering agent were examined and compared to those untreated or treated with vehicle and brain levels of soluble Aβ42 and total Aβ would be quantitated by standard techniques, for example, using ELISA. Treatment periods varied from hours to days and were adjusted based on the results of the Aβ42 lowering once a time course of onset of effect could be established.
(§3) A typical protocol for measuring Aβ42 lowering in vivo is shown but it is only one of many variations that could be used to optimize the levels of detectable Aβ. For example, Aβ42 lowering compounds were formulated in 20% of Captisol® (a sulfobutyl ether of β-cyclodextrin) in water or 20% hydroxypropyl β cyclodextrin. The Aβ42 lowering agents were administered as a single oral dose or by any acceptable route of administration to overnight fasted animals. After four hours, the animals were sacrificed and Aβ42 levels were analysed.
(§4) Blood was collected by decapitation and exsanguinations in EDTA-treated collection tubes. Blood was centrifuged at 1900 g for 10 minutes (min) at 4° C. and the plasma recovered and flash frozen for later analysis. The brain was removed from the cranium and hindbrain. The cerebellum was removed and the left and right hemisphere were separated. The left hemisphere was stored at −18° C. for quantitative analysis of test compound levels. The right hemisphere was rinsed with phosphate-buffered saline (PBS) buffer and immediately frozen on dry ice and stored at −80° C. until homogenization for biochemical assays.
(§5) Mouse brains were resuspended in 10 volumes of 0.4% DEA (diethylamine)/50 mM NaCl pH 10 (for non-transgenic animals) or 0.1% 3-[(3-cholamidopropyl)-dimethyl-ammonio]-1-propanesulfonate (CHAPS) in tris buffered saline (TBS) (for transgenic animals) containing protease inhibitors (Roche-11873580001 or 04693159001) per gram of tissue, e.g. for 0.158 g brain, add 1.58 ml of 0.4% DEA. All samples were sonicated for 30 sec on ice at 20% power output (pulse mode). Homogenates were centrifuged at 221.300×g for 50 min. The resulting high speed supernatants were then transferred to fresh tubes and were optionally further purified before the next step. A portion of the supernatant was neutralized with 10% 0.5 M Tris-HCl and this was used to quantify Aβtotal.
(§6) The obtained supernatants were purified with Water Oasis HLB reverse phase columns (Waters Corp., Milford, Mass.) to remove non-specific immunoreactive material from the brain lysates prior subsequent Aβ detection. Using a vacuum manifold, all solutions were passed through the columns at a rate of approximately 1 ml/min, so the vacuum pressure was adjusted accordingly throughout the procedure. Columns were preconditioned with 1 ml of 100% MeOH, before equilibration with 1 ml of H2O, Non-neutralized brain lysates were loaded onto the columns. The loaded samples were then washed twice with the first wash performed with 1 ml of 5% MeOH, and the second wash with 1 ml of 30% MeOH. Finally, the Aβ was eluted from the columns and into 100×30 mm glass tubes, with a solution of 90% MeOH with 2% NH4OH. […]

For data set [7], the system named is Aβ42. Kind of data set: In vivo efficacy: Aβ42 lowering in brain (ELISA). More on the design: species or system mouse. To be noted: brain soluble fraction; typical protocol: single oral dose, overnight fasted animals, after four hours.
Description: as §2, §3, §4, §5, §6

Each structure is given as a SMILES string.

As for `COc1ccc(C)c(-n2nc3c(Nc4ccc(-c5cnc(C)o5)nc4)cccc3c2C)c1` [Compound 45, 2-(5-methoxy-2-methylphenyl)-3-methyl-N-[6-(2-methyl-5-oxazolyl)-3-pyridinyl]-2H-indazol-7-amine], the IC50 in data set [1] was more than 3000 nM; in data set [3] it was 6760 nM; in data set [4], 23 nM; in data set [5], 18 nM. Further, in data set [2], the “effect on the Notch-processing activity of the γ-secretase-complex (production of NICD)” value (from here on “effect on the Notch-processing activity”) is recorded as “did not show an effect”.

For `C[C@H](NC(=O)Cc1cc(F)cc(F)c1)C(=O)NC(C(=O)OC(C)(C)C)c1ccccc1` (stereo partly drawn) [DAPT, (2S)-N-[2-(3,5-difluorophenyl)acetyl]-L-alanyl-2-phenyl-glycine 1,1-dimethylethyl ester], the “effect on the Notch-processing activity” value in data set [2] is on record as “blocked”.

Compound `COc1nc(Nc2cccc3cn(CC(F)(F)F)nc23)ccc1-n1cnc(C)c1` [Compound 54, N-[6-methoxy-5-(4-methyl-1H-imidazol-1-yl)-2-pyridinyl]-2-(2,2,2-trifluoroethyl)-2H-indazol-7-amine] had a melting point of 206 °C. Moreover, the “Aβtotal (% Ctrl) _Mean” value in data set [6] stood at 109 % Ctrl. Besides, the “Aβ42 (% Ctrl) _Mean” value in data set [7] is listed as 72 % Ctrl. The same compound gave an IC50 in data set [3] of more than 10000 nM. It took 66 nM to reach half-maximal inhibition in data set [5] (IC50).

For `CC(C)[C@H](O)C(=O)N[C@@H](C)C(=O)N[C@@H]1C(=O)N(C)CCc2ccccc21` [Semagacestat, (2S)-2-hydroxy-3-methyl-N-[(1S)-1-methyl-2-oxo-2-[[(1S)-2,3,4,5-tetrahydro-3-methyl-2-oxo-1H-3-benzazepin-1-yl]amino]ethyl]-butanamide], the “effect on the Notch-processing activity” value in data set [2] was “blocked”.
